According to US20080292721A1, “Bioactive acid agrichemical compositrions and use thereof” (priority 2007, published 2008):

System: E. amylovora 153N
Assay: Fire blight on crabapples
Assay type: in vivo
Set-up: Blossom Incidence / Shoot Incidence: unit not given here
Details: for Blossom Incidence: mean of counts; for Canker Size / Shoot Incidence: Day 63
Experimental: A study of the bioefficacy of the various agrichemical compositions, including bioactive acid solutions and blends thereof with an antibiotic agrichemical, were evaluated to assess their bioefficacy against fire blight on crabapples. The study was conducted on 5 year old Snow Drift crabapple trees, with each of the compositions being applied to ten trees in two-subplots of five trees, four different times: at 100% bloom-day 1, a second application was made on day 4, a third on day 11 and a final treatment on day 19. The trees were inoculated with E. amylovora […] at a concentration of 4×10^6 cells per milliliter on day 1, following drying of the treatment, with the inoculation being repeated on day 13. Evaluation for fire blight was completed on 100 blossoms for each of the subplots on day 12, day 19 and day 27. Additionally, the incidence of shoot infection and the length of […] evaluated on day 63. The test compositions were prepared by forming solutions of the bioactive agents. Two different dilutions of the MI2 bioactive were evaluated, the first employing 94.46 ml/gallon (25 ml/l) of water (5 ppm of each metal) and the second 188.9 ml/gallon (50 ml/l) of water (10 ppm of each metal). […] Finally, copper hydroxide was diluted at a rate of 1 lb/gallon (119.8 g/l). Each of the compositions and blends were spray applied at a rate of 50 gallons (189.3 l) pre acre. The results are presented as the mean of the counts.

Row | Structure (SMILES) | Blossom Incidence (Day 12, rate 5 lbs/a (2.27 kg/a)) | Blossom Incidence (Day 19, rate 5 lbs/a (2.27 kg/a)) | Blossom Incidence (Day 27, rate 5 lbs/a (2.27 kg/a)) | Canker Size (rate 5 lbs/a (2.27 kg/a)) [cm] | Shoot Incidence (rate 5 lbs/a (2.27 kg/a)) | Blossom Incidence (Day 12, rate 0.49 lb/a) | Blossom Incidence (Day 19, rate 0.49 lb/a) | Blossom Incidence (Day 27, rate 0.49 lb/a) | Canker Size (rate 0.49 lb/a) [cm] | Shoot Incidence (rate 0.49 lb/a)
1 | [Cu+2].[OH-].[OH-] [copper hydroxide] | 3.1 | 2.2 | 9.0 | 0.0 | 1.0 | – | – | – | – | –
2 | [H]/N=C(/N)N[C@H]1[C@H](O)[C@@H](O)[C@H](O[C@@H]2O[C@@H](C)[C@](O)(C=O)[C@H]2O[C@@H]2O[C@@H](CO)[C@H](O)[C@@H](O)[C@@H]2NC)[C@@H](N/C(N)=N\[H])[C@@H]1O [streptomycin] | – | – | – | – | – | 1.8 | 4.8 | 3.09 | 0.0 | 1.2
